Each block holds one compound with its values, some of them ahead of it. No end group written: not given here. *: point of attachment. For = O=C*
What was measured:
granulocytes = test: Chemotaxis assay (trans-well assay for macrophage mobilization); format: cell-based
From the text: Concentration-dependent granulocyte activation of N-formyl peptide conjugates has been compared with activation of the peptide only. Each series of experiments has been repeated 3 times with 200,000 granulocytes each. […] Therefore, variations in the formyl peptide amino acid composition, e.g. different amino acid residues at position 3 (phenylalanine, proline) as in structure 1 and structure 2, provide a further means to tune the immune response.

human EGFR/Erb-B1 = target: T1, human EGFR/Erb-B1 (Homo sapiens, UniProt P00533); test: Fluorescence spectroscopy binding/displacement test with NBD-labelled 12mer tracer and EGFR
T1 construct: purchased

Solubility at pH 7 = format: physicochemical
From the text: (§1) The peptide SEQ ID NO 1, […] showing specific binding activity to the tumor marker Erb-B1/EGFR was chosen as binder and the macrophage-activating peptide formyl-MLP as effector to synthesize structure 1. The structure was synthesized chemically by standard methods known in the art and purified by ion exchange chromatography. Chemical identity was verified by mass spectrometry.

[1] = Size exclusion chromatography and dynamic light scattering analysis; format: physicochemical; settings: size exclusion chromatography, dynamic light scattering
From the text: as §1

Compound: N-formyl-Met-Leu-Pro (For-Met-Leu-Pro) [fMLP]
- stimulation of granulocyte chemotaxis (granulocytes; separate experiment): can be stimulated

- displacement of fluorescent tracer peptide from EGFR complex (fluorescence intensity) (human EGFR/Erb-B1; EGFR-tracer complex 50 nM, PBS pH 7.5, 10 fold excess of unlabelled peptide (FIG. 5c)): decrease in fluorescence intensity
Compound: YHWYGYTPQNVI [unlabelled peptide, reference compound]

- displacement of fluorescent tracer peptide from EGFR complex (human EGFR/Erb-B1; 1 µM EGFR/NBD-12mer complex titrated with increasing concentrations (FIG. 5d)): displacement of the fluorescent tracer
- KD value for the interaction with EGFR (human EGFR/Erb-B1; displacement of fluorescently labelled 12mer from EGFR complex, estimated): low nM range
Compound: CC[C@H](C)[C@H](NC(=O)[C@@H](NC(=O)[C@H](CC(N)=O)NC(=O)[C@H](CCC(N)=O)NC(=O)[C@@H]1CCCN1C(=O)[C@@H](NC(=O)[C@H](Cc1ccc(O)cc1)NC(=O)CNC(=O)[C@H](Cc1ccc(O)cc1)NC(=O)[C@H](Cc1c[nH]c2ccccc12)NC(=O)[C@H](Cc1c[nH]cn1)NC(=O)[C@@H](N)Cc1ccc(O)cc1)[C@@H](C)O)C(C)C)C(=O)NCCOCCOCCOCCOCCOCCOCCOCCOCCOCCOCCOCCOCCOCCOCCOCCOCCOCCOCCOCCOCCOCCOCCOCCOCCOCCOCCOCCOCCC(=O)NCCCC[C@H](NC(=O)[C@H](CCCCNC(=O)CCOCCOCCOCCOCCOCCOCCOCCOCCOCCOCCOCCOCCOCCOCCOCCOCCOCCOCCOCCOCCOCCOCCOCCOCCOCCOCCOCCOCCNC(=O)[C@@H](NC(=O)[C@@H](NC(=O)[C@H](CC(N)=O)NC(=O)[C@H](CCC(N)=O)NC(=O)[C@@H]1CCCN1C(=O)[C@@H](NC(=O)[C@H](Cc1ccc(O)cc1)NC(=O)CNC(=O)[C@H](Cc1ccc(O)cc1)NC(=O)[C@H](Cc1c[nH]c2ccccc12)NC(=O)[C@H](Cc1c[nH]cn1)NC(=O)[C@@H](N)Cc1ccc(O)cc1)[C@@H](C)O)C(C)C)[C@@H](C)CC)NC(=O)[C@@H]1CCCN1C(=O)[C@H](CC(C)C)NC(=O)[C@H](CCSC)NC=O)C(=O)O [structure 1]
- macrophage activation profile (granulocytes; trans-well assay): demonstrated
- solubility (Solubility at pH 7): ≤ 10000 µg/mL
- oligomers or large aggregates [1]: no oligomers or large aggregates

Compound: N-formyl-Met-Leu-Phe (For-Met-Leu-Phe) [fMLF]
- stimulation of granulocyte chemotaxis (granulocytes; separate experiment): can be stimulated
- chemotactic response compared to fMLP (granulocytes; separate experiment, granulocytes): slightly higher
